# Patent US10059741B2 (priority 2015, dated 2018)
# Where two headings read alike, the source gives them in different places. Bridge positions count the residues as written; N and C are the ends. Square brackets hold non-standard residues; d marks the D form. Peptide text beside a SMILES is read from it. R8 = C=CCCCCCC[C@@](C)(N)C(=O)O; S5 = C=CCCC[C@](C)(N)C(=O)O; Nle = CCCC[C@H](N)C(=O)O; Aib = CC(C)(N)C(=O)O
# Assays:
# H1N1 California/07/2009 [1] = assay: microbe, parasite or virus in culture; type: cell-based, influenza A virus
# H3N2 Perth/16/2009 [2] = assay: microbe, parasite or virus in culture; type: cell-based, influenza A virus
# H1N1 California/07/2009 [3] = assay: microbe, parasite or virus in culture; type: cell-based, influenza A virus; remark: listed apart in the source
# H3N2 Perth/16/2009 [4] = assay: microbe, parasite or virus in culture; type: cell-based, influenza A virus; remark: listed apart in the source
# [5] = system: H1N1 A/Solomon Island/03/2006; type: cell-based, influenza A virus; conditions: Influenza A H1N1 A/Solomon Is./3/2006-M; Drug Assay Neutral Red; read-out: EC50
# [6] = system: H5N1 A/Hong Kong/213/2003; assay: microbe, parasite or virus in culture; type: cell-based, influenza A virus; conditions: read-out: EC50
# H7N9 A/Anhui/1/2013 = assay: microbe, parasite or virus in culture; type: cell-based, influenza A virus; conditions: read-out: EC50
# [7] = system: influenza virus, various viral strains; assay: organism not typed; type: cell-based; conditions: Influenza A H1N1 A/Solomon Is./3/2006-M; Drug Assay Visual; read-out: EC50
# in vitro = conditions: dog
# [8] = Cytopathic effect/toxicity (Visual), MDCK cells, read-out: EC50 (μM) H1N1 California/07/2009
# [9] = Influenza A H1N1 California/07/2009, Drug Assay Visual, read-out: EC50
# [10] = Cytopathic effect/toxicity (Visual), MDCK cells, read-out: EC50 (μM) H3N2 Perth/16/2009
# [11] = Influenza A H3N2 Perth/16/2006 (so in the source), Drug Assay Visual, read-out: EC50
# [12] = Cytopathic effect/toxicity (Neutral red), MDCK cells, read-out: EC50 (μM) H1N1 California/07/2009
# [13] = Influenza A H1N1 California/07/2009, Drug Assay Neutral Red, read-out: EC50
# [14] = Cytopathic effect/toxicity (Neutral red), MDCK cells, read-out: EC50 (μM) H3N2 Perth/16/2009
# [15] = Influenza A H3N2 Perth/16/2006 (so in the source), Drug Assay Neutral Red, read-out: EC50
# [16] = CC50 (μM) H1N1 California/07/2009, Cell cytotoxicity (CC), run with H1N1 California/07/2009
# [17] = CC50 (μM) H3N2 Perth/16/2009, Cell cytotoxicity (CC), run with H3N2 Perth/16/2009
# [18] = CC50, run with Influenza A H1N1 California/07/2009, Neutral Red
# [19] = CC50, run with Influenza A H1N1 California/07/2009, Visual
# [20] = CC50, run with Influenza A H3N2 Perth/16/2006 (so in the source), Neutral Red
# [21] = CC50, run with Influenza A H3N2 Perth/16/2006 (so in the source), Visual
# [22] = read-out: EC50 (μM) H1N1 California/07/2009
# [23] = read-out: EC50 (μM) H3N2 Perth/16/2009
smiles,measurement,setting,value
CCCC[C@H](NC(C)=O)C(=O)N[C@@H](CC(=O)O)C(=O)N[C@H](C(=O)N[C@@H](CC(N)=O)C(=O)N[C@@]1(C)CCCC=CCCC[C@@](C)(C(=O)N[C@@H](CC(C)C)C(=O)N[C@@H](C)C(=O)N[C@H](C(=O)N[C@@H](CCC(N)=O)C(=O)NC(C)(C)C(=O)N[C@@H](C)C(=O)N[C@@H](C)C(=O)N[C@@H](C)C(N)=O)C(C)C)NC(=O)[C@H](CC(C)C)NC(=O)[C@H](CC(C)C)NC(=O)[C@H]([C@@H](C)O)NC1=O)C(C)C [SP-21] (Ac-[Nle]DVN[S5]TLL[S5]LAVQ[Aib]AAA-NH2; staple 5-9),EC50,H1N1 California/07/2009 [1]; [8],< 1.5 µM
same,EC50,H1N1 California/07/2009 [1]; [9],1.3 µM
same,EC50,H3N2 Perth/16/2009 [2]; [10],< 1.5 µM
same,EC50,H3N2 Perth/16/2009 [2]; [11],0.54 µM
same,EC50,H1N1 California/07/2009 [3]; [12],1.5 to 10 µM
same,EC50,"H1N1 California/07/2009 [3]; Influenza A H1N1 California/07/20/09 (so in the source), later run, Drug Assay Neutral Red, read-out: EC50",21 µM
same,EC90,"H1N1 California/07/2009 [3]; Influenza A H1N1 California/07/20/09 (so in the source), Drug Assay Visual/Neutral Red",9.6 µM
same,EC50,H1N1 California/07/2009 [3]; [13],4.6 µM
same,EC50,H3N2 Perth/16/2009 [4]; [14],1.5 to 10 µM
same,EC50,H3N2 Perth/16/2009 [4]; [15],2.1 µM
same,EC50,"H3N2 Perth/16/2009 [4]; Influenza A H3N2 Perth/16/2009, last run, Drug Assay Neutral Red, read-out: EC50",4.8 µM
same,EC90,"H3N2 Perth/16/2009 [4]; Influenza A H3N2 Perth/16/2009, Drug Assay Visual/Neutral Red",8 µM
same,EC50,[5],5.3 µM
same,EC50,[6],39 µM
same,EC50,H7N9 A/Anhui/1/2013,17 µM
same,EC50,[7],4.8 µM
same,CC50,in vitro; CC50,> 50 µM
same,CC50,in vitro; [16],> 100 µM
same,CC50,in vitro; [17],> 100 µM
same,CC50,"in vitro; CC50, run with Influenza A H1N1 A/Solomon Is./3/2006-M, Neutral Red",> 100 µM
same,CC50,"in vitro; CC50, run with Influenza A H1N1 A/Solomon Is./3/2006-M, Visual",> 100 µM
same,CC50,"in vitro; CC50, run with Influenza A H1N1 California/07/20/09 (so in the source), later run, Neutral Red",> 100 µM
same,CC50,"in vitro; CC50, run with Influenza A H1N1 California/07/20/09 (so in the source), Visual/Neutral Red",> 100 µM
same,CC50,in vitro; [18],> 100 µM
same,CC50,in vitro; [19],> 100 µM
same,CC50,in vitro; [20],> 100 µM
same,CC50,in vitro; [21],> 100 µM
same,CC50,"in vitro; CC50, run with Influenza A H3N2 Perth/16/2009, last run, Neutral Red",> 100 µM
same,CC50,"in vitro; CC50, run with Influenza A H3N2 Perth/16/2009, Visual/Neutral Red",> 100 µM
CCCC[C@H](NC(C)=O)C(=O)N[C@@H](CC(=O)O)C(=O)N[C@H](C(=O)N[C@@H](CC(N)=O)C(=O)N[C@@]1(C)CCCC=CCCC[C@@](C)(C(=O)N[C@@H](CC(C)C)C(=O)N[C@@H](C)C(=O)N[C@H](C(=O)NC(C)(C)C(=O)N[C@@H](C)C(=O)N[C@@H](CCC(N)=O)C(=O)N[C@@H](C)C(=O)N[C@@H](C)C(N)=O)C(C)C)NC(=O)[C@H](CC(C)C)NC(=O)[C@H](CC(C)C)NC(=O)[C@H]([C@@H](C)O)NC1=O)C(C)C [SP-7] (Ac-[Nle]DVN[S5]TLL[S5]LAV[Aib]AQAA-NH2; staple 5-9),EC50,H1N1 California/07/2009 [1]; [22],10 to 25 µM
same,EC50,H3N2 Perth/16/2009 [2]; [23],25 to 50 µM
same,EC50,H1N1 California/07/2009 [3]; [22],10 to 25 µM
same,EC50,H3N2 Perth/16/2009 [4]; [23],25 to 50 µM
same,CC50,in vitro; [16],> 100 µM
same,CC50,in vitro; [17],> 100 µM
same,CC50,"in vitro; CC50, MDCK cells, run with Influenza A H1N1 California/07/2009, Neutral Red",> 100 µM
same,CC50,"in vitro; CC50, MDCK cells, run with Influenza A H1N1 California/07/2009, Visual",> 100 µM
CCCC[C@H](NC(C)=O)C(=O)N[C@@H](CC(=O)O)C(=O)N[C@H](C(=O)N[C@@H](CC(N)=O)C(=O)N[C@]1(C)CCCCCCC=CCCC[C@@](C)(C(=O)N[C@@H](CCC(N)=O)C(=O)N[C@@H](C)C(=O)N[C@@H](CCC(N)=O)C(=O)N[C@@H](C)C(=O)N[C@@H](C)C(N)=O)NC(=O)[C@H](C)NC(=O)[C@H](CC(C)C)NC(=O)[C@H](Cc2ccccc2)NC(=O)[C@H](CC(C)C)NC(=O)[C@H](CC(C)C)NC(=O)[C@H]([C@@H](C)O)NC1=O)C(C)C [SP-26] (Ac-[Nle]DVN[R8]TLLFLA[S5]QAQAA-NH2; staple 5-12),EC50,H1N1 California/07/2009 [1]; [8],< 1.5 µM
same,EC50,H1N1 California/07/2009 [1]; [9],0.75 µM
same,EC50,H3N2 Perth/16/2009 [2]; [10],10 to 25 µM
same,EC50,H3N2 Perth/16/2009 [2]; [11],14 µM
same,EC50,H1N1 California/07/2009 [3]; [12],1.5 to 10 µM
same,EC50,H1N1 California/07/2009 [3]; [13],2.1 µM
same,EC50,H3N2 Perth/16/2009 [4]; [14],10 to 25 µM
same,EC50,H3N2 Perth/16/2009 [4]; [15],23 µM
same,CC50,in vitro; [16],> 100 µM
same,CC50,in vitro; [17],> 100 µM
same,CC50,in vitro; [18],> 100 µM
same,CC50,in vitro; [19],> 100 µM
same,CC50,in vitro; [20],> 100 µM
same,CC50,in vitro; [21],> 100 µM
